Experimental data published in PubChem BioAssay (NCI).
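Compound exposure: 48 hours, 5 concentrations, 96-well plates. TGI is the concentration that stops growth completely.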

What was measured:
Assay in all cases: NCI anticancer screen, dose series, 48 h
[1] = system: SN12C renal
[2] = system: DU-145 prostate
[3] = system: UO-31 renal
[4] = system: SK-OV-3 ovarian
[5] = system: NCI-H460 lung
[6] = system: HCC-2998 colon
[7] = system: OVCAR-3 ovarian
[8] = system: COLO 205 colon
[9] = system: SNB-19 CNS
[10] = system: MOLT-4 leukemia
[11] = system: RXF 393 renal
[12] = system: CCRF-CEM leukemia
[13] = system: LOX IMVI melanoma
[14] = system: SW-620 colon
[15] = system: HS 578T breast
[16] = system: MDA-MB-231 breast
[17] = system: MCF7 breast
[18] = system: SR leukemia
[19] = system: A549 NSCLC
[20] = system: KM12 colon
[21] = system: SF-539 CNS
[22] = system: K-562 leukemia
[23] = system: NCI-H522 lung
[24] = system: T-47D breast
[25] = system: ACHN renal
[26] = system: 786-0 renal
[27] = system: SK-MEL-5 melanoma
[28] = system: MALME-3M melanoma
[29] = system: PC-3 prostate
[30] = system: SK-MEL-28 melanoma
[31] = system: NCI-H226 lung
[32] = system: M14 melanoma
[33] = system: UACC-62 melanoma
[34] = system: HCT-15 colon
[35] = system: HOP-92 NSCLC
[36] = system: A498 renal
[37] = system: SF-268 CNS
[38] = system: SF-295 CNS
[39] = system: HT29 colon
[40] = system: SNB-75 CNS
[41] = system: OVCAR-4 ovarian
[42] = system: OVCAR-8 ovarian
[43] = system: CAKI-1 renal
[44] = system: SK-MEL-2 melanoma
[45] = system: TK-10 renal
[46] = system: HCT-116 colon
[47] = system: NCI/ADR-RES ovarian
[48] = system: RPMI-8226 leukemia
[49] = system: HOP-62 NSCLC
[50] = system: IGROV1 ovarian
[51] = system: HL-60(TB) leukemia
[52] = system: NCI-H23 lung
[53] = system: U251 CNS
[54] = system: UACC-257 melanoma
[55] = system: MDA-N
[56] = system: MDA-MB-435
[57] = system: EKVX NSCLC
[58] = system: OVCAR-5 ovarian
[59] = system: BT-549 breast

**Q.** With `CC(C)C(NC(=O)C(Cc1ccccc1)NC(=O)[C@H]1CCC[C@H]1NC(=O)C(N)Cc1ccc(O)cc1)C(N)=O` (some centres undefined) as the molecule, how does the TGI [1] read?
**A.** > 100 µM

**Q.** What about the TGI [2] of the same molecule?
**A.** > 100 µM

**Q.** What about the TGI [3] of the same molecule?
**A.** > 100 µM

**Q.** And the TGI [4]?
**A.** > 100 µM

**Q.** What about the TGI [5] of the same molecule?
**A.** > 100 µM

**Q.** And the TGI [6]?
**A.** > 100 µM

**Q.** And the TGI [7]?
**A.** > 100 µM

**Q.** What about the TGI [8] of the same molecule?
**A.** > 100 µM

**Q.** What about the TGI [9] of the same molecule?
**A.** > 100 µM

**Q.** And the TGI [10]?
**A.** > 100 µM

**Q.** What about the TGI [11] of the same molecule?
**A.** > 100 µM

**Q.** What about the TGI [12] of the same molecule?
**A.** > 100 µM

**Q.** What about the TGI [13] of the same molecule?
**A.** > 100 µM

**Q.** And the TGI [14]?
**A.** > 100 µM

**Q.** What about the TGI [15] of the same molecule?
**A.** > 100 µM

**Q.** And the TGI [16]?
**A.** > 100 µM

**Q.** What about the TGI [17] of the same molecule?
**A.** > 100 µM

**Q.** What about the TGI [18] of the same molecule?
**A.** > 100 µM

**Q.** What about the TGI [19] of the same molecule?
**A.** > 100 µM

**Q.** What about the TGI [20] of the same molecule?
**A.** > 100 µM

**Q.** And the TGI [21]?
**A.** > 100 µM

**Q.** What about the TGI [22] of the same molecule?
**A.** > 100 µM

**Q.** And the TGI [23]?
**A.** > 100 µM

**Q.** What about the TGI [24] of the same molecule?
**A.** > 100 µM

**Q.** What about the TGI [25] of the same molecule?
**A.** > 100 µM

**Q.** What about the TGI [26] of the same molecule?
**A.** > 100 µM

**Q.** And the TGI [27]?
**A.** > 100 µM

**Q.** What about the TGI [28] of the same molecule?
**A.** > 100 µM

**Q.** What about the TGI [29] of the same molecule?
**A.** > 100 µM

**Q.** What about the TGI [30] of the same molecule?
**A.** > 100 µM

**Q.** What about the TGI [31] of the same molecule?
**A.** > 100 µM

**Q.** What about the TGI [32] of the same molecule?
**A.** > 100 µM

**Q.** And the TGI [33]?
**A.** > 100 µM

**Q.** What about the TGI [34] of the same molecule?
**A.** > 100 µM

**Q.** And the TGI [35]?
**A.** > 100 µM

**Q.** And the TGI [36]?
**A.** > 100 µM

**Q.** What about the TGI [37] of the same molecule?
**A.** > 100 µM

**Q.** And the TGI [38]?
**A.** > 100 µM

**Q.** What about the TGI [39] of the same molecule?
**A.** > 100 µM

**Q.** And the TGI [40]?
**A.** > 100 µM

**Q.** And the TGI [41]?
**A.** > 100 µM

**Q.** What about the TGI [42] of the same molecule?
**A.** > 100 µM

**Q.** And the TGI [43]?
**A.** > 100 µM

**Q.** And the TGI [44]?
**A.** > 100 µM

**Q.** What about the TGI [45] of the same molecule?
**A.** > 100 µM

**Q.** And the TGI [46]?
**A.** > 100 µM

**Q.** And the TGI [47]?
**A.** > 100 µM

**Q.** And the TGI [48]?
**A.** > 100 µM

**Q.** What about the TGI [49] of the same molecule?
**A.** > 100 µM

**Q.** What about the TGI [50] of the same molecule?
**A.** > 100 µM

**Q.** And the TGI [51]?
**A.** > 100 µM

**Q.** And the TGI [52]?
**A.** > 100 µM

**Q.** What about the TGI [53] of the same molecule?
**A.** > 100 µM

**Q.** And the TGI [54]?
**A.** > 100 µM

**Q.** What about the TGI [55] of the same molecule?
**A.** > 100 µM

**Q.** And the TGI [56]?
**A.** > 100 µM

**Q.** And the TGI [57]?
**A.** > 100 µM

**Q.** What about the TGI [58] of the same molecule?
**A.** > 100 µM

**Q.** Which results are given for `OC(C/C=N/Nc1ccccc1)(C(F)(F)Cl)C(F)(F)Cl`?
**A.** TGI [1]: > 10 µM; TGI [2]: > 10 µM; TGI [3]: > 10 µM; TGI [4]: > 10 µM; TGI [5]: > 10 µM; TGI [6]: > 10 µM; TGI [7]: > 10 µM; TGI [8]: > 10 µM; TGI [9]: > 10 µM; TGI [11]: > 10 µM; TGI [12]: > 10 µM; TGI [13]: > 10 µM; TGI [14]: > 10 µM; TGI [15]: > 10 µM; TGI [16]: > 10 µM; TGI [17]: > 10 µM; TGI [19]: > 10 µM; TGI [20]: > 10 µM; TGI [21]: > 10 µM; TGI [22]: > 10 µM; TGI [23]: > 10 µM; TGI [24]: > 10 µM; TGI [25]: > 10 µM; TGI [26]: > 10 µM; TGI [27]: > 10 µM; TGI [28]: > 10 µM; TGI [29]: > 10 µM; TGI [30]: > 10 µM; TGI [31]: > 10 µM; TGI [32]: > 10 µM; TGI [33]: > 10 µM; TGI [34]: > 10 µM; TGI [35]: > 10 µM; TGI [36]: > 10 µM; TGI [37]: > 10 µM; TGI [38]: > 10 µM; TGI [39]: > 10 µM; TGI [40]: > 10 µM; TGI [41]: > 10 µM; TGI [42]: > 10 µM; TGI [43]: > 10 µM; TGI [44]: > 10 µM; TGI [45]: > 10 µM; TGI [46]: > 10 µM; TGI [47]: > 10 µM; TGI [49]: > 10 µM; TGI [50]: > 10 µM; TGI [51]: > 10 µM; TGI [52]: > 10 µM; TGI [53]: > 10 µM; TGI [54]: > 10 µM; TGI [55]: > 10 µM; TGI [56]: > 10 µM; TGI [57]: > 10 µM

**Q.** What does the source list for `CC[C@@H]1/C=C/C=C/C[C@H](C)[C@@H](O)[C@](C)(O)C(=O)[C@H](C)[C@@H](O)[C@H](C)C(=O)[C@H](C)[C@@H](O)[C@H](C)/C=C/C(=O)O[C@H]2[C@@H](C)[C@@H](CC1)O[C@@]1(CC[C@@H](C)[C@@H](CC(C)O)O1)[C@@H]2C` (some centres undefined)?
**A.** TGI [1]: 4.95 µM; TGI [2]: 6.76 µM; TGI [3]: 12.3 µM; TGI [4]: 14.5 µM; TGI [5]: 4.25 µM; TGI [6]: 6.68 µM; TGI [7]: 3.95 µM; TGI [8]: 1.99 µM; TGI [9]: 19.8 µM; TGI [10]: 6.26 µM; TGI [11]: 4.06 µM; TGI [12]: 6.05 µM; TGI [13]: 4.32 µM; TGI [14]: > 42 µM; TGI [15]: > 25.1 µM; TGI [16]: 6.65 µM; TGI [17]: 7.08 µM; TGI [18]: 13 µM; TGI [19]: 9.1 µM; TGI [20]: 11.7 µM; TGI [21]: 10.3 µM; TGI [22]: > 38.2 µM; TGI [23]: 3.89 µM; TGI [25]: 8.69 µM; TGI [26]: 4.45 µM; TGI [27]: 1.7 µM; TGI [59]: 4.94 µM; TGI [28]: 15.6 µM; TGI [29]: 5.05 µM; TGI [30]: 25.3 µM; TGI [32]: 6.52 µM; TGI [33]: 6.57 µM; TGI [34]: 11.3 µM; TGI [35]: 6.11 µM; TGI [36]: 9.12 µM; TGI [37]: 12.7 µM; TGI [38]: 9.05 µM; TGI [39]: 4.19 µM; TGI [40]: 9.11 µM; TGI [41]: 9.33 µM; TGI [42]: 8.85 µM; TGI [43]: 12.7 µM; TGI [44]: 8.4 µM; TGI [45]: 12.3 µM; TGI [46]: 3.11 µM; TGI [47]: 5.48 µM; TGI [48]: 10.3 µM; TGI [49]: 5.47 µM; TGI [50]: 5.96 µM; TGI [51]: 4.25 µM; TGI [52]: 7.94 µM; TGI [53]: 11.1 µM; TGI [54]: 3.09 µM; TGI [55]: 6.72 µM; TGI [56]: 6.89 µM; TGI [57]: 10.8 µM; TGI [58]: 7.38 µM
